# In US9732085B2, “Pyridinone and pyrimidinone derivatives as factor Xia” (ONO PHARMACEUTICAL CO., LTD., priority 2011, dated 2017):
# Like-named read-outs stand apart in the source and are kept apart here.
# Legend:
# Human Factor XIa = Human Factor XIa (Homo sapiens (Human), UniProt P03951); assay: Factor XIa enzyme activity (chromogenic substrate S-2366); type: biochemical; details: read-out: In vitro FXIa inhibitory activity IC50
# Protocol: Inhibitory activities of compounds of the present invention against factor XIa, Xa, XIIa, IXa, VIIa, plasma kallikrein or thrombin were evaluated using appropriate purified proteases and synthetic substrates. The rate of hydrolysis of the chromogenic substrate by the relevant protease was continuously measured at 405 nm.
# Inhibitory activity against each enzyme was calculated as % inhibition using the equation described below. % Inhibition=[[(rate without compound)−(rate with compound)](rate without compound)]×100%. Each half maximal inhibitory concentration (IC50) value was determined by plotting the concentration of compound of the invention against the % inhibition. (1-1) Factor XIa Enzyme Activity
# Human Factor XIa (Haematologic Technologies Inc.) activity was measured at an enzyme concentration of 0.1 U/mL in 150 mM NaCl, 5 mM KCl, 1 mg/mL PEG6000, 50 mM HEPES-NaOH (pH7.4) with 300 μM S-2366 (pyroGlu-Pro-Arg-pNA, Chromogenix).
# [1] = Rat oral administration test (plasma concentration via FXIa inhibitory activity); type: in vivo; details: fasted male Crj:CD(SD)IGS rats, single 3 mg/kg p.o., 20% wellsolve, read-out: rat plasma concentration after po administration Cmax at 3 mpk
# Protocol: Each compound of the present invention in a solution of 20% wellsolve (celeste) was given to fasted male Crj:CD(SD)IGS rats as a single 3 mg/kg, p.o. dose by gavage. Blood samples were drawn from jugular vein into syringes containing 3.2% sodium citrate (the volume ratio of blood to anticoagulant=9:1) after oral administration at 0.5, 1, 2, 4 and 6 hours. Plasma was harvested by centrifugation and stored at −20° C. until measurement of plasma concentration.
# To measure plasma concentrations of the compounds of the present invention, plasma samples were deproteinized with acetonitrile, followed by evaporation of the acetonitrile to dryness. The residual was then re-dissolved with DMSO and its FXIa inhibitory activity was measured by enzyme assay described above. Plasma concentrations of each compound of the present invention were quantitated by generating a standard curve of known compound concentration in rat plasma.
# [2] = Pharmacokinetic (PK) study of the compound which has an ester group(s) in rat; type: in vivo; details: plasma, po, fasted male Crj:CD(SD) rats, single 3 mg/kg p.o., analyte: administered ester compound, read-out: rat plasma concentration of ester compound after po administration Cmax at 3mpk
# Protocol: Each compound of the present invention in a solution of 20% wellsolve (celeste) was given to fasted male Crj:CD(SD) rats as a single 3 mg/kg, p.o. dose by gavage. Blood samples were drawn from jugular vein into syringes treated with heparin-diisopropyl fluorophosphate mixture (500:1) at 0.5, 1, 3, 7 hours after oral administration. Plasma was obtained by centrifugation and stored at −20° C. until measurement of plasma concentration.
# To measure plasma concentrations of the compounds of the present invention, plasma samples were deproteinized with acetonitrile, followed by evaporation of the acetonitrile to dryness. Then the sample was reconstituted in the mobile phase and analyzed by LC/MS/MS. An analytical column (Shim-pack XR-ODS II, 2.0 mm×75 mm, 2.2 μm) and mobile phase (0.1% formic acid in water and 0.1% formic acid in acetonitrile, flow rate of 0.5 mL/min) were used. The system was used in multiple reaction monitoring (MRM) mode with positive ion detection.
# [3] = Table 2, comparison with comparative compounds
# [4] = human Factor XIa 0.1 U/mL, 300 μM S-2366, pH7.4
# Human Factor XIa, sequence (P03951 388-625): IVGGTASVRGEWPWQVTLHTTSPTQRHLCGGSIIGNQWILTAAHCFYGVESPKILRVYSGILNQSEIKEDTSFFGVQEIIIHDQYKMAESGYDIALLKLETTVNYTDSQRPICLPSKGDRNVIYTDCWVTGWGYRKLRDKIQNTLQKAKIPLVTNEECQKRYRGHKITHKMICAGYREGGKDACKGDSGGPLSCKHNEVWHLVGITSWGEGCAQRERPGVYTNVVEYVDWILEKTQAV
# Human Factor XIa, sequence (P03951 19-387 partner): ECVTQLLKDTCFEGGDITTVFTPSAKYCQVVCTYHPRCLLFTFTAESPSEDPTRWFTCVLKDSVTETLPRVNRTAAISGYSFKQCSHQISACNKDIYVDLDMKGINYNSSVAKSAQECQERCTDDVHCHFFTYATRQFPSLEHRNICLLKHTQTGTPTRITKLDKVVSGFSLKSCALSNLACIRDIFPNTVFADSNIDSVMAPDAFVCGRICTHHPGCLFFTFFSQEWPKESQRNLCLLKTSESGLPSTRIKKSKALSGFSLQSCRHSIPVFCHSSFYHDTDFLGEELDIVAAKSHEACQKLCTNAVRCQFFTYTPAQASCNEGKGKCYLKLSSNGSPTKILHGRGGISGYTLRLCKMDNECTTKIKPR
IC50 (Human Factor XIa; [3]) [nM],Cmax [1] [nM],IC50 (Human Factor XIa; [4]) [nM],Cmax [2] [nM],Structure (SMILES)
15,1250,15,–,"COC(=O)Nc1ccc(-c2[nH]c(C3CCc4cc(-c5cc(Cl)ccc5-n5cnnn5)cc(=O)n43)nc2Cl)cc1 (centres unmarked) [Example 45, methyl[4-(4-chloro-2-{7-[5-chloro-2-(1H-tetrazol-1-yl)phenyl]-5-oxo-1,2,3,5-tetrahydro-3-indolizinyl}-1H-imidazol-5-yl)phenyl]carbamate]"
2.4,510,2.4,–,"COC(=O)Nc1ccc(-c2[nH]c(Cn3ccc(-c4cc(Cl)ccc4-n4cnnn4)cc3=O)nc2Cl)cc1 [Example 57, methyl{4-[5-chloro-2-({4-[5-chloro-2-(1H-tetrazol-1-yl)phenyl]-2-oxo-1(2H)-pyridinyl}methyl)-1H-imidazol-4-yl]phenyl}carbamate]"
–,–,–,960,"CCOC(=O)c1ccc(-c2cnc([C@@H]3CCc4cc(-c5cc(Cl)ccc5-n5cnnn5)cc(=O)n43)[nH]2)s1 [Example 401, ethyl 5-(2-{(3S)-7-[5-chloro-2-(1H-tetrazol-1-yl)phenyl]-5-oxo-1,2,3,5-tetrahydro-3-indolizinyl}-1H-imidazol-5-yl)-2-thiophenecarboxylate]"

# Second part, the molecule before the results:
Structure (SMILES),IC50 (Human Factor XIa; [3]) [nM],Cmax [1] [nM],IC50 (Human Factor XIa; [4]) [nM],Cmax [2] [nM]
"COC(=O)Nc1ccc(-c2[nH]c([C@H](Cc3ccccc3)NC(=O)CCc3cc(Cl)ccc3-n3cnnn3)nc2Cl)cc1 [Comp Ex 1, reference compound]",3.6,15,–,–
"COC(=O)Nc1ccc(-c2[nH]c([C@H](C)NC(=O)/C=C/c3cc(Cl)ccc3-n3cnnn3)nc2Cl)cc1 [Comp Ex 2, reference compound]",–,25,–,–
"COC(=O)Nc1ccc(-c2[nH]c(CNC(=O)/C=C/c3cc(Cl)ccc3-n3cnnn3)nc2Cl)cc1 [Comp Ex 3, reference compound]",–,88,–,–
"COC(=O)Nc1ccc(-c2cnc(C3CCc4nc(-c5cc(Cl)ccc5-n5cnnn5)cc(=O)n43)[nH]2)cc1 (centres unmarked) [Example 41, methyl[4-(2-{2-[5-chloro-2-(1H-tetrazol-1-yl)phenyl]-4-oxo-4,6,7,8-tetrahydropyrrolo[1,2-a]pyrimidin-6-yl}-1H-imidazol-5-yl)phenyl]carbamate]",6.5,2280,6.5,–
